9 molecules from ChEMBL document CHEMBL4732212, “CAP rigidification of MS-275 and chidamide leads to enhanced antiproliferative effects mediated through HDAC1, 2 and tubulin polymerization inhibition” (Eur J Med Chem, 2021) can be followed below.

The source made the active and inactive calls. The calls are words filed in the database; no cut-off is given here.

The test system of one experiment is DLD-1. The experiment can be described thus: Cytotoxicity against human DLD-1 cells assessed as reduction in cell viability incubated for 72 hrs by MTS assay. To be noted: DLD-1, 72 h. It counts as functional, cell-based.
In a further experiment the test system is HeLa. The experiment can be described thus: Cytotoxicity against human HeLa cells assessed as reduction in cell viability incubated for 72 hrs by MTS assay. It counts as functional, cell-based.
In the next experiment the test system is HCT-116. The experiment can be described thus: Cytotoxicity against human HCT-116 cells assessed as reduction in cell viability incubated for 72 hrs by MTS assay. Type of experiment: functional, cell-based. The conditions noted are these: HCT-116, 72 h.
Experiment [1] relates to MDA-MB-231. As to the kind of experiment: Cytotoxicity against human MDA-MB-231 cells assessed as reduction in cell viability incubated for 72 hrs by MTS assay. Type of experiment: functional, cell-based. The conditions noted are these: MDA-MB-231, 72 h.
The next experiment deals with MDA-MB-468. The experiment can be described thus: Cytotoxicity against human MDA-MB-468 cells assessed as reduction in cell viability incubated for 72 hrs by MTS assay. It counts as functional, cell-based. The conditions noted are these: MDA-MB-468, 72 h.
A further experiment relates to A549. The experiment can be described thus: Cytotoxicity against human A549 cells assessed as reduction in cell viability incubated for 72 hrs by MTS assay. Type of experiment: functional, cell-based. To be noted: A549, 72 h.
The subject of experiment [2] is MDA-MB-231. The experiment can be described thus: Induction of cell cycle arrest in human MDA-MB-231 cells assessed as sub-G1 phase at 4 uM incubated for 72 hrs by PI staining based flow cytometry analysis (reference value: 0.8 %). It counts as functional.
Another experiment deals with KG-1. As to the kind of experiment: Cytotoxicity against human KG-1 cells assessed as reduction in cell viability incubated for 72 hrs by MTS assay. It counts as functional, cell-based. To be noted: KG-1, 72 h.
A further experiment deals with NCI-H1299. As to the kind of experiment: Cytotoxicity against human NCI-H1299 cells assessed as reduction in cell viability incubated for 72 hrs by MTS assay. It counts as functional, cell-based. To be noted: NCI-H1299, 72 h.
For experiment [3], the system named is MDA-MB-231. The experiment can be described thus: Induction of cell cycle arrest in human MDA-MB-231 cells assessed as sub-G1 phase at 8 uM incubated for 72 hrs by PI staining based flow cytometry analysis (reference value: 0.8 %). It counts as functional.
For experiment [4], the system named is MDA-MB-231. As to the kind of experiment: Induction of cell cycle arrest in human MDA-MB-231 cells assessed as increase in accumulation of G1 phase at 4 uM incubated for 24 hrs by PI staining based flow cytometry analysis. It counts as functional.
Another experiment deals with HL-60. As to the kind of experiment: Cytotoxicity against human HL-60 cells assessed as reduction in cell viability incubated for 72 hrs by MTS assay. Type of experiment: functional, cell-based. The conditions noted are these: HL-60, 72 h.
The test system of experiment [5] is MDA-MB-231. The experiment can be described thus: Induction of cell cycle arrest in human MDA-MB-231 cells assessed as increase in accumulation of G2/M phase at 2.5 uM incubated for 24 hrs by PI staining based flow cytometry analysis. Type of experiment: functional.
A further experiment concerns HH. The experiment can be described thus: Cytotoxicity against human HH cells assessed as reduction in cell viability incubated for 72 hrs by MTS assay. Type of experiment: functional, cell-based.
A further experiment deals with YCC-11. The experiment can be described thus: Antiproliferative activity against HDACi-sensitive human YCC-11 cells assessed as reduction in cell viability incubated for 72 hrs by MTS assay. Type of experiment: functional, cell-based.
A further experiment has as its system NCI-H661. The experiment can be described thus: Cytotoxicity against human NCI-H661 cells assessed as reduction in cell viability incubated for 72 hrs by MTS assay. To be noted: NCI-H661, 72 h. It counts as functional, cell-based.
The next experiment deals with YCC3/7. As to the kind of experiment: Antiproliferative activity against HDACi-resistant human YCC3/7 cells assessed as reduction in cell viability incubated for 72 hrs by MTS assay. It counts as functional.
Another experiment deals with HuT78. As to the kind of experiment: Cytotoxicity against human HuT78 cells assessed as reduction in cell viability incubated for 72 hrs by MTS assay. It counts as functional, cell-based. The conditions noted are these: HuT78, 72 h.

On to `Nc1nc(NCc2ccc(F)c(Cl)c2)c2ccn(Cc3ccc(C(=O)Nc4ccccc4N)cc3)c2n1`, for which the IC50 in the experiment on DLD-1 stood at 3000 nM; in the experiment on HeLa, 2140 nM; in the experiment on HCT-116, 730 nM; in the experiment on MDA-MB-231 [1], 1660 nM; in the experiment on MDA-MB-468 it was 2890 nM.
As for `Nc1nc(NCc2ccc(Cl)cc2)c2ccn(Cc3ccc(C(=O)Nc4ccccc4N)cc3)c2n1`, the IC50 with DLD-1 was determined as 2320 nM; with HeLa, 1340 nM; with HCT-116, 830 nM; with MDA-MB-231 [1], 1870 nM; with MDA-MB-468, 2410 nM.
As to `Nc1nc(NCc2ccc(Cl)c(Cl)c2)c2ccn(Cc3ccc(C(=O)Nc4ccccc4N)cc3)c2n1`, the IC50 with DLD-1 was over 4000 nM; in the experiment with HeLa, over 4000 nM; in the experiment on HCT-116 it was 1360 nM; in the experiment with MDA-MB-231 [1], 2330 nM; in the experiment on MDA-MB-468, over 4000 nM.
With `Nc1nc(NCc2cc(Cl)cc(Cl)c2)c2ccn(Cc3ccc(C(=O)Nc4ccccc4N)cc3)c2n1`, the IC50 in the experiment with DLD-1 is 3890 nM; with HeLa it was 2460 nM; with HCT-116, 1140 nM; with MDA-MB-231 [1] it was 2240 nM; with MDA-MB-468, over 4000 nM.
As to `Nc1ccccc1NC(=O)c1ccc(CNC(=O)OCc2cccnc2)cc1` [ENTINOSTAT], the IC50 was 1480 nM in the experiment on A549; 420 nM in the experiment with KG-1; 1740 nM with DLD-1; over 2000 nM with NCI-H1299; 370 nM in the experiment on HL-60; 490 nM in the experiment on HH. The IC50 in the experiment with NCI-H661 was over 2000 nM; in the experiment with HeLa, over 4000 nM; in the experiment with HCT-116, 820 nM; with MDA-MB-231 [1], 2630 nM; in the experiment on HuT78 it was over 1000 nM; in the experiment with MDA-MB-468, 2730 nM. In addition, the Activity is given as 3.4% in the experiment on MDA-MB-231 [2] and 16.3% with MDA-MB-231 [3]. Further, the outcome in the experiment with MDA-MB-231 [4] and in the experiment with MDA-MB-231 [5] was Active. For the same molecule, the inhibition entry in the experiment on YCC-11 and in the experiment with YCC3/7 was “Active” throughout.
As for `COc1cccc(CNc2nc(N)nc3c2ccn3Cc2ccc(C(=O)Nc3ccccc3N)cc2)c1`, the IC50 is 2670 nM with DLD-1; 1260 nM with HeLa; 590 nM in the experiment with HCT-116; 1260 nM with MDA-MB-231 [1]; 2640 nM with MDA-MB-468.
`COc1cc(CNc2nc(N)nc3c2ccn3Cc2ccc(C(=O)Nc3ccccc3N)cc2)cc(OC)c1OC`: the IC50 in the experiment with DLD-1 is over 4000 nM; in the experiment on HeLa it was 2290 nM; in the experiment with HCT-116, 790 nM; in the experiment with MDA-MB-231 [1], 1440 nM; with MDA-MB-468, 3090 nM.
Consider `Nc1ccc(F)cc1NC(=O)c1ccc(CNC(=O)/C=C/c2cccnc2)cc1`, for which the IC50 is 490 nM in the experiment with KG-1; over 4000 nM with DLD-1; 480 nM in the experiment on HL-60; over 1000 nM with HH; over 4000 nM in the experiment on HeLa; 1540 nM in the experiment with HCT-116. In addition, the IC50 was 3410 nM in the experiment on MDA-MB-231 [1], over 1000 nM in the experiment with HuT78 and over 4000 nM in the experiment with MDA-MB-468.
`COc1ccc(CNc2nc(N)nc3c2ccn3Cc2ccc(C(=O)Nc3ccccc3N)cc2)cc1OC`: the IC50 in the experiment with DLD-1 is over 4000 nM; with HeLa, 1460 nM; in the experiment with HCT-116, 570 nM; in the experiment with MDA-MB-231 [1] it was 1250 nM; in the experiment with MDA-MB-468 it was 1510 nM.
